Experimental data published in patent US20060204502A1 (priority 2004, published 2006).
Several values for one entry are separate records, joined by “and”; a condition that tells them apart may be missing. Equal values may be shown once. Read-outs that look alike come from different tables or passages of the source.

How the values were obtained:
[1] = system: Human Colon Carcinoma HT29; assay: MTT growth inhibitory assay, HT29; format: cell-based; conditions: HT29 cells, A3 antagonist at 1 μg/ml
Protocol: (§1) Interpretation of the EF is dependent upon the concentrations of A3 receptor antagonist tested. For example, when using very low concentrations of A3 receptor antagonist, any EF above 1.0 is synergistic if the A3 receptor antagonist concentration is below the threshold of cell growth inhibition.
(§2) The cells are sub-cultured twice a week.
(§3) Vinblastine sulfate salt was obtained from Sigma Chemical Co., (V1377). Irinotecan was diluted with culture medium. All other agents were dissolved in 100% DMSO at appropriate concentrations. The DMSO stock solutions were diluted 100-fold with growth medium so that the final DMSO concentration was 1%.

[2] = system: A375 cells; assay: Flow cytometry cell cycle (G2/M) and apoptosis (sub-G1) analysis, A375; format: cell-based, human; conditions: Homo sapiens, A-375, read-out: SEC50
Protocol: Flow Cytometry Analysis: A375 and NCTC2544 adherent cells were trypsinized, mixed with floating cells, washed with PBS and permeabilised in 70% (vol/vol) ethanol/PBS solution at 4° C. for at least 24 hours. Jurkat, HeL023 and PBMC cells were centrifuged for 10 minutes at 1000×g. The cell pellet was then resuspended and permeabllised in 70% (vol/vol) ethanol/PBS solution at 4° C. for at least 24 hours. The cells were washed with PBS and the DNA was stained with a PBS solution, containing 20 μg/ml of propidium iodide and 100 μg/ml of RNAse, at room temperature for 30 minutes. Cells were analysed by FACScan (Becton-Dickinson) and the content of DNA was evaluated by the Cell-LISYS program (Becton-Dickinson). Cell distribution among cell cycle phases and apoptotic cells was evaluated as previously described (Secchiero et al., 2001). Briefly, the cell cycle distribution is shown as the percentage of cells containing 2n (G1 phase), 4n (G2 and M phases), 4n>x>2n. DNA amount (S phase) judged by propidium iodide staining. The apoptotic population is the percentage of cells with DNA content lower than 2n.
After 24 hours, cells were collected for flow cytometry analysis. PD 98059 was used at 20 uM as an inhibitor of MEK to prevent MEK-1 activation. […]
EC50 values were obtained by analysing G2/M accumulation dose response curve. ECMAX values were obtained by analysing sub-G1 accumulation dose response curve. Paclitaxel values have units of ng/ml.

[3] = system: Human Lung Carcinoma SKMES; assay: MTT growth inhibitory assay, SKMES; format: cell-based; conditions: SKMES cells, A3 antagonist at 1 μg/ml
Protocol: as §1, §2, §3

[4] = system: HIF-1α; assay: HIF-1α protein immunoblot in hypoxic cells; format: cell-based, human; conditions: A375
Protocol: Cell culture and hypoxia treatment: Cells were maintained in DMEM (A375), EMEM (NCTC 2544) or RPMI 1640 (U87MG, U2OS) medium containing 10% fetal calf serum, penicillin (100 U/ml), streptomycin (100 ug/ml), and L-glutamine (2 mM) at 37° C. in 5% CO2/95% air. Cells were passaged two or three times weekly at a ratio between 1:5 and 1:10. Hypoxic exposure was in BBL™ GasPak pouch™ System (Becton Dickinson) that reduce oxygen concentration of less than 2% within 2 hours of incubation at 35° C.
Cells were harvested and washed with ice-cold PBS containing 1 mM sodium orthovanadate, AEBSF 104 mM, aprotinin 0.08 mM, leupeptin 2 mM, bestatin 4 mM, pepstatin A 1.5 mM, E-64 1.4 mM. Cells were then lysed in Triton lysis buffer. The protein concentration was determined using BCA protein assay kit (Pierce). […] The gel was then electroblotted onto a nitrocellulose membrane. Membranes were blocked with 5% nonfat dry milk in PBS containing 0.1% Tween-20 and incubated with antibodies against HIF-1α (1:250 dilution) and HIF-1β (1:1000 dilution) in 5% nonfat dry milk in PBS/0.1% Tween-20 overnight at 4° C. Aliquots of total protein sample (50 ug) were analyzed using antibodies specific for phosphorylated (Thr183/Tyr185) or total p44/p42 MAPK (1:5000 dilution), phosphorylated (Thr180/Tyr182) or total p38 MAPK (1:1000 dilution) and for A3 receptor (1 µg/ml dilution). Filters were washed and incubated for 1 hour at room temperature with peroxidase-conjugated secondary antibodies against mouse and rabbit IgG (1:2000 dilution). […] The membranes were then stripped and reprobed with tubulin (1:250) to ensure equal protein loading.
U0126 was used at 10 and 30 uM as inhibitor of MEK-1 and MEK-2 to prevent p44 and p42 MAPK activation. SB202190 was used at 1 and 10 uM as inhibitor of p38 MAPK.
Densitometry analysis: The intensity of each band in immunoblot assay was quantified using molecular analyst/PC densitometry software (Bio-Rad). […] The data were presented as the mean±S.E., and analyzed by the Student's test.

[5] = target: P-gp (Homo sapiens, UniProt P08183); format: cell-based; conditions: 10 μM; for P-gp mediated Rh123 efflux (FRES vs FMAX): 3 hours efflux
Sequence of P-gp (P08183 whole entry): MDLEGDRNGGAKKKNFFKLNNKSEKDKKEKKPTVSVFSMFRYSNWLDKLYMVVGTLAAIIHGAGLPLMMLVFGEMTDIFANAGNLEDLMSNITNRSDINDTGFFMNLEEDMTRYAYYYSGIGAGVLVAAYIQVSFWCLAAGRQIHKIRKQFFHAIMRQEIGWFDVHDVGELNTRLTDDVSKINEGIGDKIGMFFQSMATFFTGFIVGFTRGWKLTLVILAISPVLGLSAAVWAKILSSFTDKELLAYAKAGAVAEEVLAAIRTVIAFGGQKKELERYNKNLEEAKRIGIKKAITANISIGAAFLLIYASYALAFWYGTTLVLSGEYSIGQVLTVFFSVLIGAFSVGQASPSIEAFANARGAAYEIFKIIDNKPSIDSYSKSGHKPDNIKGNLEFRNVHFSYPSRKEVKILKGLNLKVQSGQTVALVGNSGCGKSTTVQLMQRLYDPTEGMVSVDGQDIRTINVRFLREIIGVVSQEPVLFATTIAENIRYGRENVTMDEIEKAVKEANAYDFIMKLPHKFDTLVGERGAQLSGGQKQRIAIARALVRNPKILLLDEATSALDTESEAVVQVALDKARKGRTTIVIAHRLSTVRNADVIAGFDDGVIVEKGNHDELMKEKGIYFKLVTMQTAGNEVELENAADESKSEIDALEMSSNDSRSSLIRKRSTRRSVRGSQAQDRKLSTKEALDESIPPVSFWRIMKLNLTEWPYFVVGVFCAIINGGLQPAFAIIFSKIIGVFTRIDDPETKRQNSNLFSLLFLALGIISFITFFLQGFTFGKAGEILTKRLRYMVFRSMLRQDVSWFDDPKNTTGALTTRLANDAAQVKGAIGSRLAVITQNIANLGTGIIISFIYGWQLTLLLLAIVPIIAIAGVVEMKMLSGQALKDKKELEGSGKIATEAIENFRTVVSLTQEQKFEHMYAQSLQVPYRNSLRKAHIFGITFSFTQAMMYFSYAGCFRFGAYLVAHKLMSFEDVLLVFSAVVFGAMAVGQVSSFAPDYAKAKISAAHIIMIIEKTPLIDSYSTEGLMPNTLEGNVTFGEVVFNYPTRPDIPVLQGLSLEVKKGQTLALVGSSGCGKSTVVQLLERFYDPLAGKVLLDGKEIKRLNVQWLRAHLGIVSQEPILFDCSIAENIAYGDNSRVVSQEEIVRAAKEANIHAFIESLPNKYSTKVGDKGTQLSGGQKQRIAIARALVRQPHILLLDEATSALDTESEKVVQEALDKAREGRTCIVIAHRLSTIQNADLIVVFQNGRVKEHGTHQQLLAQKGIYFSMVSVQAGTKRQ
Protocol: Rhodamine 123 Efflux Assay: 5×10^5 cells from each subline were loaded with 50 ng/ml of rhodamine 123 for 30 minutes at 37 C in medium. The cells were washed and resuspended in dye-staining agent free medium for 3 hours at 37 C. to allow rhodamine 123 efflux. The cells were then washed twice and the fluorescence of intracellular rhodamine 123 were analysed with Flow cytometer (residual fluorescence FRES). The fluorescence was compared with loaded cells maintained at 4 C. to prevent drug export (maximal fluorescence FMAX). […] Cells from each subline that were not being exposed to rhodamine 123 were used as negative controls.
Rhodamine 123 (Rh123) retention, a P-gp functional assay, was studied in all cell lines. This assay was performed by incubating cells with Rh123 and determining Rh123 accumulation by measuring its fluorescence. The maximum load of Rh123 (FMAX) was quantified at the end of treatment harvesting the cells and storing them at 4° C. to prevent any active Rh123 efflux. The P-gp drug efflux was allowed incubating Rh123-loaded cells in fresh new medium Rh123-free for 3 hours at 37° C. After this incubation, residual fluorescence (FRES) was measured and compared to FMAX.

[6] = system: Human Melanoma A375; assay: MTT growth inhibitory assay, A375; conditions: A375 cells
Protocol: An exemplary assay may comprise the following steps: Cells (1000-1500 cells/well) are seeded in a 96-well micro culture plate in a total volume of 100 μl/well. After overnight incubation in a humidified incubator at 37° C. with 5% CO2-95% air, chemotherapeutic drug solutions diluted with culture medium at various concentrations are added in the amount of 100 μl to each well. The plates are placed in a humidified incubator at 37° C. with 5% CO2-95% air for 7-10 days. The plates are then centrifuged briefly and 100 μl of the growth medium is removed. Cell cultures are incubated with 50 μl of MTT [3-(4,5-dimethylthiazol-2-yl)-2,5-diphenyl-tetrazolium bromide] reagent (1 mg/ml in Dulbecco's phosphate-buffered saline) for 4 hr at 37° C. The resultant purple formazan precipitate is solubilized with 200 μl of 0.04 N HCl in isopropanol. Absorbance is measured at a wavelength of 595 nm and at a reference wavelength of 655 nm using a Bio-Rad Model 3550 Microplate Reader. Preferably, all tests are run in duplicate for each dose level. […] The EZED50 computer program estimates the concentration of agent that inhibits cell growth by 50% as compared to the control cells. This is termed the IC50 and is determined by curve fitting test data using the following four logistic equation. [formula]
If testing concentrations are properly selected (i.e., no or little growth inhibition at low concentrations and complete inhibition at high concentrations), EZED50 program fits the data extremely well and estimates the IC50 value accurately. […] In these instances, the data could be re-analyzed by fixing the Amax value.
In this case, the IC50 could be estimated more accurately if both the Amax and Amin values are fixed. Although it may be feasible to estimate IC50 value by fixing Amax and/or Amax and Amin without repeating the experiment, the best way to determine the IC50 accurately is to decrease or increase the concentrations of the test agent and repeat the test.
Inhibitory assay testing is also used to determine enhanced therapeutic effects from combining A3 receptor antagonists with other tumor inhibiting agents. The inhibitory cell growth assays are run with and without selected concentrations of A3 receptor antagonists. An enhanced therapeutic effect is present when the IC50 of the tumor inhibiting agent is lower with the A3 receptor antagonist.
Quantitatively, the enhancement factor (EF) is calculated by dividing the IC50 value of the tumor inhibiting agent for a tumor cell line by the IC50 value of the agent with A3 receptor antagonist for the same cell line: [formula]
The cells are cultured in a T25 Falcon Tissue Culture flask in a humidified incubator at 37° C. with 5% CO2-95% air. The cells are sub-cultured twice a week.

CCCn1cc2c(nc(NC(=O)Nc3ccc(OC)cc3)n3nc(-c4ccco4)nc23)n1 [MRE3008F20, 5-[[(4-Methoxyphenyl)amino]carbonyl]amino-8-propyl-2-(2-furyl)-pyrazolo[4,3-e]1,2,4-triazolo[1,5-c]pyrimidine]
Enhancement Factor ([1]; enhancement of docetaxel IC50): 15.0 | Enhancement Factor ([1]; enhancement of doxorubicin IC50): 1.6 | Enhancement Factor ([1]; enhancement of irinotecan IC50): 1.8 | Enhancement Factor ([1]; enhancement of paclitaxel IC50): 2.9 | EC50 [2]: 550 ± 60 nM | Enhancement Factor ([3]; enhancement of docetaxel IC50): 3.6 | Enhancement Factor ([3]; enhancement of irinotecan HCL IC50): 2.1 | Enhancement Factor ([3]; enhancement of paclitaxel IC50): 4.1 | Enhancement Factor ([3]; enhancement of vinblastine IC50): 1.2 | effect on adenosine-induced HIF-1α protein expression ([4]; hypoxia 4 hours, adenosine 100 μM, antagonist 100 nM): abrogated | effect on Cl-IB-MECA-induced HIF-1α modulation ([4]; hypoxia, antagonist 10 and 100 nM, Cl-IB-MECA 10 and 100 nM): able to abrogate the effect of Cl-IB-MECA | IC50 ([4]; Homo sapiens, A-375, read-out: IC50, inhibition of HIF-1α protein increase induced by 10 nM Cl-IB-MECA, hypoxia 4 hours, 0.3-30 nM): 0.9 ± 0.08 nM | P-gp mediated Rh123 efflux (FRES vs FMAX) ([5]; A375 cells): completely blockade of P-gp mediated Rh123 transport | % of Rh123 Negative Cells (cells expressing P-gp activity) ([5]; HeL023 cells): 0.5 ± 0.3% | P-gp mediated Rh123 efflux (FRES vs FMAX) ([5]; HeL023 cells): near total P-gp inhibition | Enhancement Factor ([6]; enhancement of docetaxel IC50, A3 antagonist at 3 μg/ml): 6.9 | Enhancement Factor ([6]; enhancement of docetaxel IC50, A3 antagonist at 10 μg/ml): 5.3 | Enhancement Factor ([6]; enhancement of paclitaxel IC50, A3 antagonist at 1 μg/ml): 7.1 | Enhancement Factor ([6]; enhancement of paclitaxel IC50, A3 antagonist at 3 μg/ml): 6.4 | Enhancement Factor ([6]; enhancement of paclitaxel IC50, A3 antagonist at 10 μg/ml): 7.1 and 8.5 | Enhancement Factor ([6]; enhancement of paclitaxel, at all three concentrations (1, 3, and 10 μg/ml)): 6.4-7.1
